What was measured:
Stat3 = Stat3 (Mus musculus, UniProt P42227); experiment: Stat3 DNA-binding activity in vitro, electrophoretic mobility shift assay (EMSA) on nuclear extracts; assay type: biochemical; details: nuclear extracts containing activated Stat3 pre-incubated with compound 30 min at room temperature, radiolabeled hSIE probe
Experimental: FIGS. 3A-3D. show the effect of aryl sulfonamido compounds described herein on Stat3 DNA-binding activity in vitro. […] Positions of Stat3:DNA complexes in gel are labeled; control lanes (0) represent nuclear extracts pre-treated with 10% DMSO.
Nuclear extract preparation, gel shift assays, and densitometric analysis. […] Except where indicated, nuclear extracts were pre-incubated with compound for 30 min at room temperature prior to incubation with the radiolabeled probe for 30 min at 30° C. before subjecting to EMSA analysis. Where appropriate, bands corresponding to Stat3:DNA complexes were scanned and quantified for each concentration of compound using ImageJ and plotted as percent of control (DMSO) against concentration of compound, from which the IC50 values were derived.
The inhibitory activities of the representative analogs against in vitro Stat3 DNA-binding activity, as measured by electrophoretic mobility shift assay (EMSA) for representative compounds from the Examples above are shown in FIGS. 3A-3D and summarized in Table 1.
Table 1. Stat3 DNA-binding activity in vitro of aryl sulfonamido compounds described herein, including their corresponding referenced names (e.g., H203), as measured by electrophoretic mobility shift assay (EMSA). The inhibition metrics are presented in units of micromolar (μM).

[1] = system: Stat3 DNA-binding activity in MDA-MB-231 cells; experiment: EMSA of nuclear extracts from treated human breast cancer cells (intracellular Stat3 signaling); assay type: cell-based; details: 0.5, 1, 2, 3, 4, 5 and 10 μM, 0-72 h
Experimental: Nuclear extract preparation, gel shift assays, and densitometric analysis. […] The ^32P-labeled oligonucleotide probes used were hSIE (high affinity sis-inducible element from the c-fos gene, m67 variant, 5′-[…]) (SEQ ID NO: 1) that binds Stat1 and Stat3 and MGFe (mammary gland factor element from the bovine β-casein gene promoter, 5′-[…]) (SEQ ID NO: 2) for Stat1 and Stat5 binding. Except where indicated, nuclear extracts were pre-incubated with compound for 30 min at room temperature prior to incubation with the radiolabeled probe for 30 min at 30° C. before subjecting to EMSA analysis. Where appropriate, bands corresponding to Stat3:DNA complexes were scanned and quantified for each concentration of compound using ImageJ and plotted as percent of control (DMSO) against concentration of compound, from which the IC50 values were derived.
Aryl sulfonamido azetidine compounds were investigated for their inhibitory effects of the active analogs on intracellular Stat3 signaling. […] Nuclear extracts are prepared and subjected to EMSA analysis for Stat3 DNA-binding activity. […] Stat3 DNA-binding activity in MDA-MB-231 cells, is inhibited by the compounds following treatment as measured periodically up to 72 h.

[2] = Body weight of treated mice in the xenograft study; assay type: in vivo, mouse; details: 10 mg/kg every other day, intraperitoneally, treated vs untreated mice
Experimental: (§1) (5 mice per group). The subjects were administered intraperitoneally.

MDA-MB-231 = experiment: Cell growth by trypan blue exclusion/phase-contrast microscopy; assay type: cell-based; details: Homo sapiens, MDA-MB-231, read-out: IC50, MDA-MB-231 cell growth
Experimental: FIGS. 1A-1N. Show the effects of aryl sulfonamido azetidine compounds on cell viability in vitro relative to control (untreated cells). […] Cells in 6-well plates were treated once with 0.05% DMSO, or at the indicated concentrations (0.5, 1, 2, 3, 4, 5 and 10 μM if not otherwise so indicated) of the test compounds. […] The compound names are correlated with the structures provided in the Examples in Table 1.
Cell proliferation and viability assay. […] Cells in 6-well or 96-well plates were treated with or without compounds for the indicated concentrations and time, and subjected to MTT assay or CyQuant cell proliferation assay (Invitrogen/ThermoFisher Scientific), or harvested and the viable cells were counted by trypan blue exclusion with phase-contrast microscopy.
Constitutive Stat3 activity promotes tumor cell growth and proliferation and survival (Darnell J E (2005) Nat Med. 11:595-6; Bowman T, et al., (2000) Oncogene 19:2474-2488). An aryl sulfonamido azetidine compound, H182, was tested against tumor cells harboring constitutively-active Stat3.

[3] = system: subcutaneous MDA-MB-231 tumor xenografts; experiment: Growth of subcutaneous MDA-MB-231 tumor xenografts; assay type: in vivo, mouse; details: 10 mg/kg every other day, intraperitoneally, vs vehicle control
Experimental: as §1

Chain of Stat3 (P42227 2-770): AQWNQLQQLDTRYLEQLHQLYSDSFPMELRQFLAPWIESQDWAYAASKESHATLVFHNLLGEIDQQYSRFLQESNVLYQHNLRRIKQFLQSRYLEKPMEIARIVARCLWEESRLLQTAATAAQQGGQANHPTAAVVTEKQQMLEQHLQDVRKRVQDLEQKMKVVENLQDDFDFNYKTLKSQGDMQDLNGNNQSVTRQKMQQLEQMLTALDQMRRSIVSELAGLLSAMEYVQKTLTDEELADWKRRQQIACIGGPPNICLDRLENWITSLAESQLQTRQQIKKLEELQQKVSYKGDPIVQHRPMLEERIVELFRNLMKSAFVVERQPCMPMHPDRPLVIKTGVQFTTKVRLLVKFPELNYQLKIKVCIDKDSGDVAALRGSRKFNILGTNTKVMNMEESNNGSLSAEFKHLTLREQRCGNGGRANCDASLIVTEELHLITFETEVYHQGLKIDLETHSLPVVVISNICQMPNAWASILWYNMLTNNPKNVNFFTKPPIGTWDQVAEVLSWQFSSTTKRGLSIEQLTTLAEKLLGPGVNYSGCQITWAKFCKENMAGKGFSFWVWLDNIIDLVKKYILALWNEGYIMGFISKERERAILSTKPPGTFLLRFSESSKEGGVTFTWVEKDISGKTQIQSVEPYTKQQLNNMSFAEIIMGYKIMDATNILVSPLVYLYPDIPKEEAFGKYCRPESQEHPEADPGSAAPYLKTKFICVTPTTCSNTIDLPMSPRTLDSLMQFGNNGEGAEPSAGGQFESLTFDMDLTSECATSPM

| SMILES | IC50 (Stat3) [µM] | Stat3 DNA-binding activity in MDA-MB-231 cells [1] | further results |
| --- | --- | --- | --- |
| Cn1ccc2cc(N(Cc3ccc(C4CCCCC4)cn3)C(=O)[C@H]3CCN3S(=O)(=O)c3c(F)c(F)c(F)c(F)c3F)ccc2c1=O [Example 22, (R)—N-((5-cyclohexylpyridin-2-yl)methyl)-N-(2-methyl-1-oxo-1,2-dihydroisoquinolin-6-yl)-1-((perfluorophenyl)sulfonyl)azetidine-2-carboxamide] | 0.866 ± 0.085 | – | – |
| Cn1cnc2cc(N(Cc3ccc(C4CCCCC4)cn3)C(=O)[C@H]3CCN3S(=O)(=O)c3c(F)c(F)c(F)c(F)c3F)ccc2c1=O [Example 23, (R)—N-((5-cyclohexylpyridin-2-yl)methyl)-N-(3-methyl-4-oxo-3,4-dihydroquinazolin-7-yl)-1-((perfluorophenyl)sulfonyl)azetidine-2-carboxamide] | 1.15 ± 0.04 | – | – |
| O=C([C@H]1CCN1S(=O)(=O)c1c(F)c(F)c(F)c(F)c1F)N(Cc1ccc(C2CCCCC2)cn1)c1ccc2c(=O)[nH]ccc2c1 [Example 25, (R)—N-((5-cyclohexylpyridin-2-yl)methyl)-N-(1-oxo-1,2-dihydroisoquinolin-6-yl)-1-((perfluorophenyl)sulfonyl)azetidine-2-carboxamide] | 0.788 ± 0.039 | – | – |
| O=C([C@H]1CCN1S(=O)(=O)c1c(F)c(F)c(F)c(F)c1F)N(Cc1ccc(C2CCCCC2)nc1)c1ccc2c(=O)[nH]ncc2c1 [Example H172] | – | inhibited | – |
| O=C([C@H]1CCN1S(=O)(=O)c1c(F)c(F)c(F)c(F)c1F)N(Cc1ccc(C2CCCCC2)cn1)c1ccc2c(=O)[nH]cnc2c1 [Example H182] | – | inhibited | body weight [2]: maintaining subject body weight; IC50 (MDA-MB-231): < 10 µM; tumor growth [3]: reduce the tumor growth rate |
